Read-outs that look alike come from different tables or passages of the source.
Key:
Fasciola hepatica [1] = assay: Chemotherapeutic test against adult liver flukes in artificially infected rats (reduction of egg count per gram faeces), oral application; type: in vivo; settings: Ratte
From the text: (§1) Zur Feststellung der Wirkung der erfindungsgemäßen Verbindungen gegen Fasciolide wurden chemotherapeutische Untersuchungen bei ca. 250 g schweren Ratten, bei 2 - 3,5 kg schweren Kaninchen oder an ca. 25 - 30 kg schweren Schaflämmern ausgeführt. Die Versuchstiere wurden mit 15, mit 50 bzw. mit 350 Metazerkarien von Fasciola hepatica artifiziell oral infiziert. Nach Ablauf der Präpatenzperiode (Zeit zwischen Infektion und Geschlechtsreife der Parasiten mit beginnender Ausscheidung von Vermehrungsprodukten) wurde der Parasitenbefall durch Kotuntersuchungen gesichert. Der qualitativ-quantitative Nachweis von Eiern erfolgte nach der Telemann-Anreicherung (Deutsche Medizinische Wochenschrift "34: 1510, 1908).
(§2) Unmittelbar nach der Bestimmung der Eizahl pro Gramm Kot wurde die Behandlung der Versuchstiere (im allgemeinen 3 - 4 Tiere pro Wirkstoff, mindestens aber zwei) vorgenommen. Den Tieren wurde oral eine Suspension von unterschiedlicher Wirkstoffmenge in jeweils festgelegten Volumen (Ratte: 0,5 ml/Tier, Kaninchen: 2 ml/Tier, Schaf: 10 ml/Tier) in einer Tylose-Suspension appliziert. Jeweils am 7., 14. und 28. Tag nach der Behandlung wurde wiederum nach der vorstehend angegebenen Methode die Eizahl pro Gramm Kot ermittelt und die prozentuale Abnahme im Vergleich zum Ausgangswert vor der Behandlung und in Vergleich zu unbehandelten Kontrolltieren errechnet.
(§3) Mit einigen erfindungsgemäßen Verbindungen wurden außerdem beim Fasciola-Befall noch eine zusätzliche Prüftechnik angewandt: Nach Abschluß der Präpatenzperiode wurde bei Fasciola-positiven Schafen ein künstlicher Gallengang geschaffen, der am Ausgang der Gallenblase ein Sieb enthielt, so daß die nach der Behandlung abgetöteten Leberegel in der Gallenblase aufgefangen werden konnten. Vier bis sieben Tage nach der Behandlung wurden die so operierten und dann behandelten Schafe getötet, die abgetöteten Leberegel in der Gallenblase so wie noch eventuell in der Leber vorhandene Leberegel gezählt und von der gesamten Wurmbürde der Prozentsatz der abgetöteten Parasiten berechnet. Bei ausgewählten Substanzen wurden über die Kotuntersuchung hinaus auch die behandelten Tiere seziert und die Leber auf eine eventuelle Rest-Wurmbürde von Fasciola hepatica untersucht.

in vivo = settings: sheep, quotient of Dosis tolerata maxima and applied dose, read-out: Sicherheits-faktor
From the text: Eine einmalige Verabreichung der erfindungsgemäßen Wirkstoffe in den angegebenen Dosierungen führt zu einem völligen Aufhören der Eiausscheidung und einer nahezu 100 %igen Befreiung der Tiere von Fasciola hepatica. Alle Dosierungen wurden von den Tieren ohne Nebenerscheinungen vertragen. Dieses wird durch den Sicherheitsfaktor unterstrichen, der wesentlich günstiger ist als bei den zum Vergleich herangezogenen Wirkstoffen
Der Sicherheitsfaktor gibt den Quotienten aus Dosis tolerate maxima und angewandter Dosis an. Die Ergebnisse dieser Versuche sind in der nachstehenden Tabelle zusammengestellt.

Fasciola hepatica [2] = assay: Chemotherapeutic test against adult liver flukes in artificially infected sheep (egg count reduction / killed flukes), oral application; type: in vivo, Schaf
From the text: as §1, §2, §3

Fasciola hepatica [3] = assay: Chemotherapeutic test against adult liver flukes in artificially infected rabbits (reduction of egg count per gram faeces), oral application; type: in vivo; settings: Kaninchen
From the text: as §1, with “gesichert.” for “gesichert. Der qualitativ-quantitative Nachweis von Eiern erfolgte nach der Telemann-Anreicherung (Deutsche Medizinische Wochenschrift "34: 1510, 1908).”
as §2, §3

[4] = 75 mg/kg peroral, adult liver flukes

## O=[N+]([O-])c1cc(Cl)cc(-c2cc(Cl)cc([N+](=O)[O-])c2O)c1O [Niclofolan, 5,5'-Dichlor-2,2`-dihydroxy-3,3'-dinitro-phenyl]
Fasciola hepatica [1]; 4 mg/kg peroral
  Wirkung %: 80%
Fasciola hepatica [1]; 8 mg/kg peroral
  Wirkung %: 90%
In vivo; applied dose 3,0 mg/kg (Schaf)
  selectivity ratio: 4.4
Fasciola hepatica [2]; Schaf, 1,5 mg/kg peroral
  Wirkung %: <50%
Fasciola hepatica [2]; Schaf, 3,0 mg/kg peroral
  Wirkung %: >90%
Fasciola hepatica [3]; 4 mg/kg peroral, death printed instead of an efficacy value
  Wirkung %: Exitus

## CC(=O)Oc1c(I)cc(I)cc1C(=O)Nc1ccc(Cl)cc1 [Clioxanide, 2-Acetoxy-4-chlor-3,5-dijod-benzanilid]
Fasciola hepatica [1]; 135 mg/kg peroral
  Wirkung %: 0%
Fasciola hepatica [1]; 200 mg/kg peroral
  Wirkung %: 0%
In vivo; applied dose 3,75 mg/kg (Schaf)
  selectivity ratio: 30
In vivo; applied dose 7,5 mg/kg (Schaf)
  selectivity ratio: 15
Fasciola hepatica [2]; Schaf, 3,75 mg/kg peroral
  Wirkung %: ca.50%
Fasciola hepatica [2]; Schaf, 7,5 mg/kg peroral
  Wirkung %: >90%
Fasciola hepatica [3]; 50 mg/kg peroral, adult liver flukes
  Wirkung %: 0%
Fasciola hepatica [3]; [4]
  Wirkung %: 0%

## CSc1nc2cc(OS(=O)(=O)c3cccc(C(F)(F)F)c3)ccc2[nH]1 [Beispiel 1, 5(6)-(3-Trifluormethyl-phenylsulfonyloxy)-2-methylmercapto-benzimidazol]
Fasciola hepatica [1]; 50 mg/kg peroral
  Wirkung %: 80%
Fasciola hepatica [1]; 75 mg/kg peroral
  Wirkung %: 100%
Fasciola hepatica [2]; Schaf, 7,5 mg/kg peroral
  Wirkung %: >95%
Fasciola hepatica [2]; Schaf, 10,0 mg/kg peroral
  Wirkung %: 100%
Fasciola hepatica [3]; [4]
  Wirkung %: 100%
Fasciola hepatica [3]; <50 mg/kg peroral, adult liver flukes
  Wirkung %: 100%

From EP0072532A1, “5(6)-Phenyl-sulfonyloxy-benzimidazole derivatives, process for their production, pharmaceutical compositions containing them and their use against liver disorders” (priority 1981, dated 1983)
